For test [1], the system named is SK-MEL-5 melanoma cell line. The test is described as follows: Cell viability (XTT), SK-MEL-5. The class given is cell-based. The protocol:
Cell proliferation kit II (Roche Inc.) is based on colorimetric change of the yellow tetrazolium salt XTT in orange formazan dye by the respiratory chain of viable cells (Roehm, N W, et al., J Immunol Methods 142:257-265, 1991). Cells seeded at a concentration of 5000/well in 100 μl medium in a 96-well plate were treated with different drugs in the given concentration. After 24 or 48 h the cells were incubated, according to the manufacturer's protocol, with XTT labelling mixture. After 4 h the formazan dye is quantified using a scanning multiwell spectrophotometer with a 495-nm filter. The absorbance is directly correlated with the number of viable cells. The standard absorbance curve was drawn by means of untreated cells seeded at a concentration of from 1000 to 10 000 cells/well with an increasing rate of 1000 cells/well. All standards and experiments were performed in triplicates.
12 different types of cell lines were seeded in 96-well plates (medium volume in a well was 100 μl), at a concentration of 10,000 cells/cm^2 in Minimal Essential Medium supplemented with fetal calf serum. When the cells had reached a concentration of 65,000 cells/cm^2, they were treated with different doses of podophyllotoxin and picropodophyllin for 48 h. Cell viability was then assayed (see above). […]
(In general: Tetrazolium dyes change colour on reduction, which living cells bring about.)

The target in test [2] is T1, IGF-1R (Homo sapiens, UniProt P08069). As to the kind of experiment: IGF-1R tyrosine autophosphorylation, sandwich ELISA, cell-free. The format is biochemical. The arrangement: expressed in transfected cells; host or cells: P6 cell line (murine fibroblasts overexpressing human IGF-1R); receptor captured on plates with an antibody to the beta subunit. The protocol:
IGF-1R tyrosine autophosphorylation was analysed by a sandwich ELISA assay. Briefly, 96-well plates (Immunolon, Nunc) were coated overnight at 4° C. with 1 μg/well of the monoclonal antibody Ab-5 (LabVision) to the IGF-1R beta subunit. The plates were blocked with 1% BSA in PBS Tween for 1 h, then 80 µg/well of total protein lysate from the P6 cell line was added. As a negative control was used total protein lysate from the R-cell line. The investigated compounds were added in tyrosine kinase buffer without ATP at room temperature for 30 min, prior to kinase activation with ATP. Kinase assay was performed using the Sigma kit. After spectrophotometry the IC50 values of inhibitors were determined using the Regression function of Statistica program.
To investigate whether PPP interferes with the tyrosine autophosphorylation at the ATP level or at the substrate level (i.e., the tyrosine kinase domain of the IGF-1R […]), various concentrations of ATP (19-300 μM) were added to the reaction buffer during the assay.
(ELISA stands for enzyme-linked immunosorbent assay.)

Test [3] concerns the target T1, IGF-1R. As to the kind of experiment: Tyrosine phosphorylation of IGF-1R in intact FM55 melanoma cells. The arrangement: endogenous in cells. The conditions noted are these: 0.05 μM, 1 h; for Level of phosphorylation in intact cells, substrate IGF-1R: FM55 cells, Experiment 3; for Level of IGF-1R phosphorylation in intact cells: FM55 melanoma cells, means of 3 experiments. The class given is cell-based. The protocol: Cells were cultured to subconfluency in 6-cm plates, and then fresh medium containing 10% FBS and the desired compounds were added for 1 h. The cells were then lyzed and subjected to immunoprecipitation using specific antibodies. Immunoprecipitates were resolved by sodium dodecyl sulphate polyacrylamide gel electrophoresis (SDS-PAGE) and transferred to nitro-cellulose membranes and incubated with anti-phosphotyrosine antibody. Antibodies to actin (in cell extract) or IGF-1R beta subunit were used as loading controls. After detection the films were scanned for quantification.
The isolated cells were then lyzed in 10 ml ice-cold PBSTDS containing protease inhibitors (Carlberg, M., et al., J Biol Chem 271:17453-17462, 1996). 50 μl protein A or G agarose was added in 1 ml sample and incubated for 15 min at 4° C. on an orbital shaker. After centrifugation for 10 min at 10,000 r/min at 4° C. the supernatant was saved. The protein content was determined by a dye-binding assay with a reagent purchased from Bio-Rad. Bovine serum albumin was used as a standard. 15 μl Protein G Plus agarose and 5 μl anti-IGF-1R were added. After a 3 h incubation at 4° C. on an orbital shaker the precipitate was collected by pulse centrifugation in a micro centrifuge at 14,000×g for 10 s. The supernatant was discarded and the pellet was washed 3 times with PBSTDS.
Protein samples were solved in a 2×-sample buffer containing Laemmli buffer and 0.5% […] and boiled for 5 min at 96° C. Samples were separated by SDS-PAGE with a 4% stacking gel and 7.5% separation gel. Molecular weight markers (Bio Rad, Sweden) were run simultaneously in all experiments.
Following SDS-PAGE the proteins were transferred overnight to nitro-cellulose membranes (Hybond, Amersham, UK) and then blocked for 1 h at room temperature in a solution of 4% skimmed milk powder and 0.02% Tween 20 in PBS, pH 7.5. Incubations with the primary antibodies were performed for 1 h at room temperature, followed by 3 washes with PBS with Tween and incubation with the second antibody for 1 h room temperature. After another 3 washes the membranes were incubated with Streptavidin-labelled horseradish peroxidase for 30 min and then detected using Amersham ECL system (Amersham, UK). The films were scanned by Fluor-S (BioRad).
FM55 melanoma cells were seeded in 6-cm dishes, at a concentration of 10,000 cells/cm^2 in Minimal Essential Medium supplemented with 10% fetal calf serum (FCS). When the cells reached a density of 65,000 cells/cm^2 in the dishes, they were treated for 1 h with 0.05 μM podophyllotoxin, deoxypodophyllotoxin, picropodophyllin, deoxypicropodophyllin, 4′-demethyl-7-(4,6-O-ethylidene-β-D-glucopyranosyl)epipodophyllotoxin (etoposide) and podophyllotoxin-4,6-O-benzylidene-β-D-glucopyranoside (pf-4,6-O). Etoposide and pf-4,6-O were also administered at 15 μM. The cells were then harvested for assay and quantification of IGF-1R phosphorylation as described in Experiment 1. The values shown in Table 1 represent means of 3 experiments.
FM55 melanoma cells were cultured in the same way as described in Experiment 1. When reaching a density of 65,000 cells/cm^2 in the dishes, they were treated for 1 h with 0 (control) and 0.05 μM of picropodophyllin and podophyllotoxin, respectively. The cells were then isolated and subjected to immunoprecipitation of the IGF-1R, fibroblast growth factor receptor (FGFR), platelet-derived growth factor receptor (PDGFR), epidermal growth factor receptor (EGFR), insulin receptor (IR) and insulin substrate-1 (IRS-1) using antibodies to respective molecules. IRS-1 is a substrate of IGF-1R, and therefore its phosphorylation is dependent on phosphorylated IGF-1R. Gelelectrophoresis, Western blotting and quantification of the different signals were performed as described above.

Molecules are shown by their SMILES. pEC50, pIC50: −log10 of the molar value. Where two headings read alike, the source gives them in different places.

Usually pEC50 stands for −log10 of the EC50, conventionally taken in molar units.

T1 sequence (P08069 31-1367): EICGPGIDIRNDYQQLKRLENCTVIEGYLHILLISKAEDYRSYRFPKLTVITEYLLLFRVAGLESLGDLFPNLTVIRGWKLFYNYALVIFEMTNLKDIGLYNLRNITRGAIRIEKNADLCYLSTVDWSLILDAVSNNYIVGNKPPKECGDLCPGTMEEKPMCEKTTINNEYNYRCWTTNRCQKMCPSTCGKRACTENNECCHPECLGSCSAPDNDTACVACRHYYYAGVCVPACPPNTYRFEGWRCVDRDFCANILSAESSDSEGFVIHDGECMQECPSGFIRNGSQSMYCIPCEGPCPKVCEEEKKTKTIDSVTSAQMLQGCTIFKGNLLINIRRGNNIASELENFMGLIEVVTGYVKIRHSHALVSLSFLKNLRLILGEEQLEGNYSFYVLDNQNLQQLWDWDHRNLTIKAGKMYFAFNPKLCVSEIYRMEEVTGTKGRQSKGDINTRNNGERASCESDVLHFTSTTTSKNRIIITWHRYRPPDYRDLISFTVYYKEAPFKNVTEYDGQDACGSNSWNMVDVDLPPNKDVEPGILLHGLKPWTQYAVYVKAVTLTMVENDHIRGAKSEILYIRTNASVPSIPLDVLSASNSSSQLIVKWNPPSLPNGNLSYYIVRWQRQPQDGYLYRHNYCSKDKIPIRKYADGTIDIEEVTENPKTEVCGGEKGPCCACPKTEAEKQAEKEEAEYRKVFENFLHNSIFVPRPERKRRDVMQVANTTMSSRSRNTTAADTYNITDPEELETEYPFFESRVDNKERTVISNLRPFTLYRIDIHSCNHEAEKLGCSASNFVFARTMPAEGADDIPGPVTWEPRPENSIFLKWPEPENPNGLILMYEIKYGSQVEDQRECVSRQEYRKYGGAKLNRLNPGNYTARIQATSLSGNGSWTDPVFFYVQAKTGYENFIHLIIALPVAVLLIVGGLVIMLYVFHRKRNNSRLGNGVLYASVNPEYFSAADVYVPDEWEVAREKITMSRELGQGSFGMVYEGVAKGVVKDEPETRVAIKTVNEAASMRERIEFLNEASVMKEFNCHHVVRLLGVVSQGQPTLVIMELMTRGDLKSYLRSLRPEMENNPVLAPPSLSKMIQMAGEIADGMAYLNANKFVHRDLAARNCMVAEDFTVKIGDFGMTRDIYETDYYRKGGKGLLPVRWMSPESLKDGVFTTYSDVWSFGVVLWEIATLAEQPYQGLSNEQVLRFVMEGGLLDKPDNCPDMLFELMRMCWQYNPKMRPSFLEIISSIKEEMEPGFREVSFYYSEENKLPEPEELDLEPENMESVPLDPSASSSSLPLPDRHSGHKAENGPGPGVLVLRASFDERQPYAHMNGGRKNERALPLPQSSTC

For `COc1cc([C@@H]2c3cc4c(cc3[C@H](O)[C@H]3COC(=O)[C@@H]23)OCO4)cc(OC)c1OC` [Picropodophyllin, picropodophyllin], the pEC50 in test [1] (Homo sapiens, SK-MEL-5, 48 h; read-out: EC50 for cell viability) was 7.30. In addition, the pIC50 at IGF-1R [2] (cell-free, ATP 19-300 μM in reaction buffer, read-out: IC50, autophosphorylation of IGF-1R at various ATP concentrations) was 8.70 to 9.00. For the same molecule, the pIC50 on IGF-1R [2] (cell-free, FIG. 4, read-out: IC50, autophosphorylation of IGF-1R) was approximately 9.00. In addition, on IGF-1R [3], the “Level of phosphorylation in intact cells, substrate IGF-1R” value came to 20 % OD and the “Level of IGF-1R phosphorylation in intact cells” value was 8 % OD.

Turning to `COc1cc([C@@H]2c3cc4c(cc3[C@H](O)[C@H]3COC(=O)[C@H]23)OCO4)cc(OC)c1OC` [Podophyllotoxin, podophyllotoxin], in test [1] (Homo sapiens, SK-MEL-5, 48 h, read-out: EC50 for cell viability), the pEC50 was 7.70. For the same molecule, the pIC50 at IGF-1R [2] (in vitro, stated in description, read-out: IC50 for IGF-1R-inhibition when tested in vitro) was 9.00. For the same molecule, on IGF-1R [3], the “Level of phosphorylation in intact cells, substrate IGF-1R” value turned out to be 7 % OD and the “Level of IGF-1R phosphorylation in intact cells” value is 5 % OD.

The record behind these values is patent US7662851B2, “Use of specific cyklolignans” (Axelar AB, priority 2001, dated 2010).
